Assay results: patent US20230002327A1, “SMALL-MOLECULE REGULATOR OF TLR8” (TSINGHUA UNIVERSITY, priority 2019, published 2023)

Key:
[1] = system: R848-induced signaling pathway in THP-1 cells; assay: ELISA of inflammatory factors in R848-treated THP-1 cells; format: cell-based, human
Procedure: THP-1 cells treated with 50 ng/mL of PMA were suspended in RPMI medium (containing 10% fetal bovine serum, penicillin (100 U/mL), streptomycin ([…]) and 0.05 mM 2-mercaptoethanol), seeded in a 12-well plate at a density of 1×10^6 cells/well and 1 mL/well, and incubated in a cell incubator (37° C., 5% CO2).
(§1) After 48 hours, suspending cells would adhere onto the surface of the 12-well plate, non-adhered cells and the medium were aspirated, and cells were washed with sterile […] buffer (3×1 mL). RPMI medium was added (1 mL/well), and R848 (1 μg/mL) and various concentrations of Compound 24 or Compound 10 (as a negative control) were further added to treat cells. Or, the same amount of peripheral blood mononuclear cells derived from healthy human were used instead of THP-1 cells for subsequent experiments.
(§2) After 24 hours, the supernatant of the medium was collected and stored in a freezer at −80° C. Cells were washed with PBS (3×1 mL), the 12-well plate was placed on ice, and then 400 μL of lysis buffer (containing protease inhibitor) was added to each well, during which the cells were pipetted every five minutes. After 20 minutes, the mixture was transferred to the corresponding 1.5-mL tube and centrifuged at 13.2K rpm and 4° C. for 20 minutes. 350 μL of the supernatant was collected into a new centrifuge tube and frozen at −80° C.
(§3) Cytokines interleukin-1β(IL-1β), interleukin-6 (IL-6) and tumor necrosis factor (TNF-α) were quantified by enzyme-linked immunosorbent assay (ELISA) according to the instructions of the kit provided by the manufacturer.

[2] = system: R848-induced signaling pathway in human peripheral blood mononuclear cells; assay: ELISA of TNF-α in R848-treated human peripheral blood mononuclear cells; format: cell-based; details: human peripheral blood mononuclear cells (FIG. 8)
Procedure: as §1, §2, §3

[3] = system: TLR1/2, TLR2/6, TLR3, TLR4 and TLR5 signaling pathways; assay: ELISA of TNF-α in TLR1/2, TLR2/6, TLR3, TLR4 or TLR5 signaling pathways in human PBMC; format: cell-based; details: human peripheral blood mononuclear cells (FIG. 4)
[4] = target: T1, TLR8 (Homo sapiens, UniProt Q9NR97); assay: ssRNA40-induced signaling in HEK-Blue hTLR8 cell line; format: cell-based; details: at a concentration of 100 μM (FIG. 12)
T1 construct: host or cells: HEK-Blue hTLR8 (HEK293-derived SEAP reporter cells)
T1 sequence (Q9NR97 27-1041): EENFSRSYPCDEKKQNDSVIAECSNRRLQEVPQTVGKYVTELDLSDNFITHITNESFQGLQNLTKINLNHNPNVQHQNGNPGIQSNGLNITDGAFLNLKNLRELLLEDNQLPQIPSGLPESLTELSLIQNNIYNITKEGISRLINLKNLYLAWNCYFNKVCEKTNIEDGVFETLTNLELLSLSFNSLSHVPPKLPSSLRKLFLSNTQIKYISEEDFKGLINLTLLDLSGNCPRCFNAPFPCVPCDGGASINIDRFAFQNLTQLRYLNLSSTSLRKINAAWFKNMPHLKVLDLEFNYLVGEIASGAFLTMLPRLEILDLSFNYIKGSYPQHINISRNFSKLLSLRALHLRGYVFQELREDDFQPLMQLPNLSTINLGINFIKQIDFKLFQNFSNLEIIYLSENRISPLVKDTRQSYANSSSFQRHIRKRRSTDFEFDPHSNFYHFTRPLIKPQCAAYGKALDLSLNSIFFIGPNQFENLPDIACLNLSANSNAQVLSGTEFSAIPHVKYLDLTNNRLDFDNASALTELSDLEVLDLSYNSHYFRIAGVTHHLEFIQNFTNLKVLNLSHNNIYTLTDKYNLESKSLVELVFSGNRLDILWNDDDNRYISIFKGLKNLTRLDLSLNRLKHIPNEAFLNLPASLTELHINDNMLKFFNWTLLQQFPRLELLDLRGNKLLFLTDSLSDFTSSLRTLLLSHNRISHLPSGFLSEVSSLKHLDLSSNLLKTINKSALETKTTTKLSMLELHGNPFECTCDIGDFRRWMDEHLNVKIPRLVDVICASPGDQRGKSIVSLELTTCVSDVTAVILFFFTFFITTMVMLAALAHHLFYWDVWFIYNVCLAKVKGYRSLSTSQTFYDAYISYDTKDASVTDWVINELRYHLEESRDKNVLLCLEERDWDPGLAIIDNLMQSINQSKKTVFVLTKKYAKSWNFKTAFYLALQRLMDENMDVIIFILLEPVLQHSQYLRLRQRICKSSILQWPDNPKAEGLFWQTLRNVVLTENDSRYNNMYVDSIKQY
Procedure: HEK Blue hTLR8 cells or HEK Blue hTLR7 cells were cultured in DMEM medium supplemented with 10% fetal bovine serum, penicillin (100 U/mL) and streptomycin ([…]). Thereafter, cells were seeded in 96-well plate (45,000 cells per well), and were cultured for 24 hours in a humidified incubator (37° C., 5% CO2).
After 24 hours, the supernatant and suspending cells were aspirated and replaced with fresh serum-free DMEM. Cells were treated with 1 μg/mL of R848 (agonist of TLR7/8) or 5 μg/mL of ssRNA40/LyoVec or 5 μg/mL of ORN06/LyoVec (InvivoGen) and compounds with specified concentrations, and were placed in a humidified incubator (37° C., 5% CO2) for co-culture.
After 24 hours, 50 μL of the medium was aspirated from each well and then added to a new 96-well plate, followed by the addition of 50 μL of Quanti-Blue in each well and the incubation at 37° C. in darkness. Changes in color would occur in the […] within 60 minutes, and the absorbance was measured at 620 nm by using the multi-mode plate reader Vrioskan Flash. Inhibition rate (%)=[R848 (OD620)−Compound (OD620)]/[R848 (OD620)−Control (OD620)]×100%. Among these, the control group was only added with the same amount of cells. Finally, the software Prism 6.0 was utilized to plot a graph and calculate IC50 values. […]

Row | synergistic activating effect on ssRNA40-induced signaling [4] | Structure (SMILES) | inhibitory effect on inflammatory factor TNF-α ([1]; concentration-dependent (FIG. 5)) | inhibitory effect on inflammatory factor IL-6 ([1]; concentration-dependent (FIG. 6)) | inhibitory effect on inflammatory factor IL-1β ([1]; concentration-dependent (FIG. 7)) | inhibitory effect on inflammatory factor TNF-α [2] | inhibitory effect on TNF-α in TLR1/2, TLR2/6, TLR3, TLR4 and TLR5 signaling pathways [3]
1 | – | CSc1nnc(CCCO)n1-c1cc(C)c(C)c(C)c1 [Compound 24, 3-(5-(methylthio)-4-(3,4,5-trimethylphenyl)-4H-1,2,4-triazole-3-yl)propan-1-ol] | significant inhibitory effect | significant inhibitory effect | significant inhibitory effect | significant inhibitory effect | no inhibitory effect
2 | synergistic activating effect | CCOCc1nc(I)c(-c2ccccc2)n1CC(C)(C)O [Compound 53, 1-[2-(ethoxymethyl)-4-iodo-5-phenyl-1H-imidazole-1-yl]-2-methylpropan-2-ol] | – | – | – | – | –
